# Columns and labels:
# GSK3β = GSK3β (Homo sapiens, UniProt P49841); experiment: Inhibitory activity against GSK3β (33P-ATP phosphorylation of prephosphorylated GS1 peptide, two protocols); assay type: biochemical; conditions: protocol used not stated
# Experimental: Two different protocols can be used. In a first protocol: 7.5 μM of prephosphorylated GS1 peptide and 10 μM ATP (containing 300,000 cpm of ^33P-ATP) were incubated in 25 mM Tris-HCl, pH 7.5, 0.6 mM DTT, 6 mM MgCl2, 0.6 mM EGTA, 0.05 mg/ml BSA buffer for 1 hour at room temperature in the presence of GSK3beta (total reaction volume: 100 microliters). In a second protocol: 4.1 μM of prephosphorylated GS1 peptide and 42 μM ATP (containing 260,000 cpm ^33P-ATP) were incubated in 80 mM Mes-NaOH, pH 6.5, 1 mM Mg acetate, 0.5 mM EGTA, 5 mM 2-mercaptoethanol, 0.02% Tween 20, 10% glycerol buffer for 2 hours at room temperature in the presence of GSK3beta. Inhibitors were solubilized in DMSO (final solvent concentration in the reaction medium, 1%). The reaction was stopped with 100 microliters of a solution made of 25 g polyphosphoric acid (85% P2O5), 126 ml 85% H3PO4, H2O to 500 ml and then diluted to 1:100 before use. An aliquot of the reaction mixture was then transferred to Whatman P81 cation exchange filters and rinsed with the solution described above. Incorporated ^33P radioactivity was determined by liquid scintillation spectrometry. The phosphorylated GS-1 peptide had the following sequence: NH2-[…](P)EDEE-COOH. SEQ ID NO: 1 (Woodgett, J. R. (1989) Analytical Biochemistry 180, 237-241.
# Chain of GSK3β (P49841 whole entry): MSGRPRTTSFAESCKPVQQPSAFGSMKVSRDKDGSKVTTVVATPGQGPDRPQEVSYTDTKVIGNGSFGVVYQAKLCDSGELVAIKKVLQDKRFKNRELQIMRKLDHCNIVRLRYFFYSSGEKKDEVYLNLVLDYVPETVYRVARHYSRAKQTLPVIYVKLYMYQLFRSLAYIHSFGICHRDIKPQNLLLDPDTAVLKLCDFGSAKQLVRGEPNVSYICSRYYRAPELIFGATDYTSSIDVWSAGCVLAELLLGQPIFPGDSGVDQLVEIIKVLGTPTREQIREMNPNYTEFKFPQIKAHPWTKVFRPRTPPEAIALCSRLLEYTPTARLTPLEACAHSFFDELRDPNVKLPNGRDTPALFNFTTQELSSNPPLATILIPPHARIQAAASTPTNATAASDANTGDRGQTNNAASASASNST
structure (smiles),measurement,setting,value
"COc1ccccc1C(=O)NCc1nc(-c2ccncn2)cc(=O)n1C [compound 1, 2-Methoxy-N-(1-methyl-6-oxo-1,6-dihydro-[4,4′]bipyrimidinyl-2-ylmethyl)-benzamide]",IC50,GSK3β,23 nM
same,melting point,,239 to 241 °C

# From patent publication US8592436B2, “Arylamide pyrimidone derivatives” (Sanofi, priority 2007, dated 2013)
